Reference: patent US9682141B2, “Combination of kinase inhibitors and uses thereof” (INTELLIKINE LLC, priority 2011, dated 2017)
Where two headings read alike, the source gives them in different places.

Experiments:
Format in all cases: biochemical
PI3K α = PI3K α (Homo sapiens (Human), UniProt P42336); experiment: PI 3-Kinase (human) HTRF assay, p110α/p85α
PI3K β = PI3K β (Homo sapiens (Human), UniProt P42338); experiment: PI 3-Kinase (human) HTRF assay, p110β/p85α
[1] = PI 3-Kinase (human) HTRF assay, p110δ/p85α; details: read-out: PI3K γ IC50
PI3K γ = PI3K γ (Homo sapiens (Human), UniProt P48736); experiment: PI 3-Kinase (human) HTRF assay, p110γ

Chain of PI3K α (P42336 whole entry): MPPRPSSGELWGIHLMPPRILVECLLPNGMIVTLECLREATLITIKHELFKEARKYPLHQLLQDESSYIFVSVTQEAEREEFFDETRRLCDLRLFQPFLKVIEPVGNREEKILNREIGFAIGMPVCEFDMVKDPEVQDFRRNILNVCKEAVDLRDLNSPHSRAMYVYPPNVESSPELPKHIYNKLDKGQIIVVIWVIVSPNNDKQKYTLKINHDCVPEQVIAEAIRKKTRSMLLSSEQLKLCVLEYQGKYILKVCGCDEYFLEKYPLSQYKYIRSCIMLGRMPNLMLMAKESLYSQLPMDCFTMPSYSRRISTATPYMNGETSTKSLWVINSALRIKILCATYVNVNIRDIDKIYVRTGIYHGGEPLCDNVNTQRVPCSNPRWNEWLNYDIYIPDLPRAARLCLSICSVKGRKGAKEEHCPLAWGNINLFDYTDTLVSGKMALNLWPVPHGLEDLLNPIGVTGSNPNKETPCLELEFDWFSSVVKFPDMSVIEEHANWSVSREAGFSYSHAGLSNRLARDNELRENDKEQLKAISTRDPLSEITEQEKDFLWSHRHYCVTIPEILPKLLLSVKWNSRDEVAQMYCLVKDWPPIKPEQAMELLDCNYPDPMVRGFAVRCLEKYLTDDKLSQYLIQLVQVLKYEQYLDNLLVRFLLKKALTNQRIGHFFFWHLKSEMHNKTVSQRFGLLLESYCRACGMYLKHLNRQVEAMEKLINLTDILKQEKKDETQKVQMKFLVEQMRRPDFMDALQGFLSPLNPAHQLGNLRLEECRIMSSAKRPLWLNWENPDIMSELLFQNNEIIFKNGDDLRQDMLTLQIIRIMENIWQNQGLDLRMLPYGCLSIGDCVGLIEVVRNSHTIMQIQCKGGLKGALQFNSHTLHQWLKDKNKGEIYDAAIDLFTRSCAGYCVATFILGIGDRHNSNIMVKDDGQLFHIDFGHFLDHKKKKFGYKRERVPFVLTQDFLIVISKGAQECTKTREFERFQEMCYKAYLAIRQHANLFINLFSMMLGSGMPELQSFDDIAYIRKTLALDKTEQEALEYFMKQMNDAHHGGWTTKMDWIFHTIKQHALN
Chain of PI3K α (P27986 whole entry partner): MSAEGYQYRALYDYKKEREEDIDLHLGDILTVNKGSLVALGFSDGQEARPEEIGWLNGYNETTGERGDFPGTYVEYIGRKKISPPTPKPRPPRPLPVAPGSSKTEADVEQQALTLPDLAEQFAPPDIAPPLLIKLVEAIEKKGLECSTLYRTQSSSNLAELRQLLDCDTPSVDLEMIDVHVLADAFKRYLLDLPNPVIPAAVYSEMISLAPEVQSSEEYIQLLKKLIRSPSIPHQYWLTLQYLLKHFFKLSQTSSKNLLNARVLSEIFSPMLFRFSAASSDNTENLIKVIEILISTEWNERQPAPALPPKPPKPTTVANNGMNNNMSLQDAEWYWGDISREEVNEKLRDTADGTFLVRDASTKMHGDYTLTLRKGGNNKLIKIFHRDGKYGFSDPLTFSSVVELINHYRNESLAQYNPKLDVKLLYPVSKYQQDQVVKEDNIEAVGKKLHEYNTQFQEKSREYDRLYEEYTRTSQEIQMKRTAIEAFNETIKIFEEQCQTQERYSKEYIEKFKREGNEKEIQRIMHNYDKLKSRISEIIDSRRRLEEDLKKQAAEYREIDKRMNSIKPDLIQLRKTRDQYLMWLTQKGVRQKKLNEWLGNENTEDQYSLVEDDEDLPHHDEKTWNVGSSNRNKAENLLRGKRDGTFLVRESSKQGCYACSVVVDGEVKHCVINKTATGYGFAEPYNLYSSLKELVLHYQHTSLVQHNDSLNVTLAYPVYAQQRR
Chain of PI3K β (P42338 whole entry): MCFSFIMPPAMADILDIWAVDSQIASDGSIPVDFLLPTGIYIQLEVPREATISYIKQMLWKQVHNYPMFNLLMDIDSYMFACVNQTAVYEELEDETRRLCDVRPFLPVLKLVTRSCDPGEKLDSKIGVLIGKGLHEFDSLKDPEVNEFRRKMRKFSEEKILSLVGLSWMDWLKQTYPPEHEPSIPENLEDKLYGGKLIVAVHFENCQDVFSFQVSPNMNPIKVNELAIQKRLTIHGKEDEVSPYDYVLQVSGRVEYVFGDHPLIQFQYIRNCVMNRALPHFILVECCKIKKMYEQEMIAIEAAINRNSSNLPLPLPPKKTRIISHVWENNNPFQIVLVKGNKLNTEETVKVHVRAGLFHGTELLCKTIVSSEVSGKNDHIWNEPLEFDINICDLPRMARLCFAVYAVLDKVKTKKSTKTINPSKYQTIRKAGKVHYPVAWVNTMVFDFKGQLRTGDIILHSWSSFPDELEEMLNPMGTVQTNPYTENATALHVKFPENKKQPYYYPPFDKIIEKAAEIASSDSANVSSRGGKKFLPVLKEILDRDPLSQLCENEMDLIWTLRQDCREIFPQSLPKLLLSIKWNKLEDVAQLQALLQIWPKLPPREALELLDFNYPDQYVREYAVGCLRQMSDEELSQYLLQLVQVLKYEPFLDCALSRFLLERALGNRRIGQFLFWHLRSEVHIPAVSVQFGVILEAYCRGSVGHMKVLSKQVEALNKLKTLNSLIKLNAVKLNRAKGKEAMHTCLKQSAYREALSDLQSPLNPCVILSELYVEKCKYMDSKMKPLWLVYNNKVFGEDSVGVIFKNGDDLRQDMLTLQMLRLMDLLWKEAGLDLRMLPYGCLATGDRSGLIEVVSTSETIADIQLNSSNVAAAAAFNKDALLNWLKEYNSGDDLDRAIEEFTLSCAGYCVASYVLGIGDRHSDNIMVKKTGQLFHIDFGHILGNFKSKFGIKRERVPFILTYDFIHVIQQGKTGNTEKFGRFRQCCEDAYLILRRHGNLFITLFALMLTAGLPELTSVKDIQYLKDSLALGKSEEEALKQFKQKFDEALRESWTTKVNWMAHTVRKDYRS
Chain of PI3K β (P27986 whole entry partner): as the sequence (P27986 whole entry partner) above

| Structure (SMILES) | IC50 (PI3K α) [nM] | IC50 (PI3K β) [nM] | IC50 [1] [nM] | IC50 (PI3K γ; read-out: PI3K δ IC50) [nM] | IC50 (PI3K γ; read-out: PI3K γ IC50) [nM] |
| --- | --- | --- | --- | --- | --- |
| Nc1nc2cc(-c3ccc4ncc(C(=O)N5CCCCC5)n4c3)ccc2o1 | < 1000 | < 10000 | > 10000 | < 10000 |  |
| Nc1ncc(-c2cnc3ccc(-c4ccc5oc(N)nc5c4)cc3n2)cn1 | < 1000 | > 10000 | > 10000 | > 10000 |  |
| Cc1c(-c2ccc3oc(N)nc3c2)ccc2ncc(N3CC(N4CCNCC4)C3)nc12 | < 100 | > 10000 | > 10000 |  |  |
| CN1CCN(c2cnc3ccc(-c4ccc5oc(N)nc5c4)cc3n2)C(=O)C1 | < 10000 |  |  | > 10000 |  |
| Nc1nc2c(-c3ccc4ncc(C(=O)N5CCOCC5)n4c3)cccc2o1 | < 1000 | < 10000 | > 10000 | < 10000 |  |
| Nc1nc2cc(-c3ccc4ncc(C(=O)N5CCC(N6CC(F)(F)C6)C5)n4c3)ccc2o1 (centres unmarked) | < 1000 | > 10000 | > 10000 | < 10000 |  |
| Nc1nc2cc(-c3ccc4ncc(C(=O)N5CCC6(C5)OCCO6)n4c3)ccc2o1 | < 1000 | > 10000 | > 10000 | < 10000 |  |
| Nc1nc2cc(-c3ccc4ncc(C(=O)N5CCC(F)(F)CC5)n4c3)ccc2o1 | < 1000 | > 10000 | > 10000 | < 10000 |  |
| Nc1nc2cc(-c3ccc4ncc(C(=O)N5CC(N6CCC(F)(F)C6)C5)n4c3)ccc2o1 | < 100 | > 10000 | < 10000 | < 1000 |  |
| Nc1nc2cc(-c3ccc4ncc(C(=O)N5CCC(F)CC5)n4c3)ccc2o1 | < 1000 | > 10000 | > 10000 | < 100 |  |
| Nc1nc2cc(-c3ccc4ncc(C(=O)N5CC6CCC(C5)O6)n4c3)ccc2o1 | < 1000 | < 10000 | > 10000 | < 100 |  |
| O=C(c1cnc2ccc(-c3ccc4c(Nc5ccccc5)nsc4c3)cn12)N1CCOCC1 | > 10000 | > 10000 | > 10000 | > 10000 |  |
| O=C(c1cnc2ccc(-c3cncc4[nH]ncc34)cn12)N1CCOCC1 | < 100 | > 10000 | > 10000 | > 10000 |  |
| Cc1cc2ncc(C(=O)N3CCOCC3)n2cc1-c1ccc2oc(N)nc2c1 | > 10000 | > 10000 | > 10000 | > 10000 |  |
| C[C@@H]1CN(C2CN(C(=O)c3cnc4ccc(-c5ccc6oc(N)nc6c5)cn34)C2)CCN1C | < 100 | < 10000 | < 1000 | < 10000 |  |
| O=C(c1cnc2ccc(-c3ccc4c(Nc5ccccc5)noc4c3)cn12)N1CCOCC1 | > 10000 | > 10000 | > 10000 | > 10000 |  |
| C[C@H]1CN(C2CN(C(=O)c3cnc4ccc(-c5ccc6oc(N)nc6c5)cn34)C2)CCN1 | < 100 | < 10000 | < 1000 | < 10000 |  |
| C[C@@H]1CN(C2CN(C(=O)c3cnc4ccc(-c5ccc6oc(N)nc6c5)cn34)C2)CCN1 | < 100 | < 10000 | < 1000 | < 10000 |  |
| C[C@H]1CN(C2CN(C(=O)c3cnc4ccc(-c5ccc6oc(N)nc6c5)cn34)C2)CCN1C | < 100 | < 10000 | < 1000 | < 10000 |  |

| Structure (SMILES) | IC50 (PI3K α) [nM] | IC50 (PI3K β) [nM] | IC50 [1] [nM] | IC50 (PI3K γ; read-out: PI3K δ IC50) [nM] | IC50 (PI3K γ; read-out: PI3K γ IC50) [nM] |
| --- | --- | --- | --- | --- | --- |
| CC1(C)CN(C(=O)c2cnc3ccc(-c4ccc5oc(N)nc5c4)cn23)CCO1 | < 1000 | > 10000 | > 10000 | < 10000 |  |
| CC1(C)COCCN1C(=O)c1cnc2ccc(-c3ccc4oc(N)nc4c3)cn12 | < 1000 | > 10000 | > 10000 | > 10000 |  |
| O=C(c1cnc2ccc(-c3cnc(Cl)c4[nH]ncc34)cn12)N1CCOCC1 | < 1000 | > 10000 | > 10000 | > 10000 |  |
| COc1ncc(-c2ccc3ncc(C(=O)N4CCOCC4)n3c2)c2cn[nH]c12 | < 1000 | > 10000 | < 10000 | < 10000 |  |
| CN1CCN(n2cnc3ccc(-c4ccc5oc(N)nc5c4)cc3c2=O)CC1 | < 1000 | > 10000 | > 10000 | > 10000 |  |
| CC(C)N1CCC(n2cnc3ccc(-c4cncc(NS(=O)(=O)c5ccc(F)cc5F)c4)cc3c2=O)CC1 | < 1000 | < 10000 | < 10000 | < 1000 |  |
| CC(C)N1CCC(n2cnc3ccc(-c4cncc(NS(C)(=O)=O)c4)cc3c2=O)CC1 | > 10000 | > 10000 | > 10000 | > 10000 |  |
| CC(C)N1CCC(n2cnc3ccc(-c4cnc(Cl)c(NS(=O)(=O)c5ccccc5)c4)cc3c2=O)CC1 | < 100 | < 100 | < 100 | < 1000 |  |
| COc1ncc(-c2ccc3ncn(C4CCN(C(C)C)CC4)c(=O)c3c2)cc1NS(=O)(=O)c1ccccc1 | < 100 | < 100 | < 100 | < 100 |  |
| CC(C)N1CCC(n2cnc3ccc(-c4cnc(Cl)c(NS(C)(=O)=O)c4)cc3c2=O)CC1 | < 100 | < 1000 | < 100 | < 100 |  |
| COc1ncc(-c2ccc3ncn(C4CCN(C)CC4)c(=O)c3c2)cc1NS(=O)(=O)c1ccccc1 | < 100 | < 100 | < 100 | < 1000 |  |
| COc1ncc(-c2ccc3ncn(C4CCN(C)CC4)c(=O)c3c2)cc1NS(C)(=O)=O | < 100 | < 1000 |  | < 10000 |  |
| CN1CCC(n2cnc3ccc(-c4cnc(Cl)c(NS(C)(=O)=O)c4)cc3c2=O)CC1 | < 100 | < 10000 | < 1000 | > 10000 |  |
| CN1CCC(n2cnc3ccc(-c4cnc(Cl)c(NS(=O)(=O)c5ccccc5)c4)cc3c2=O)CC1 | < 100 | < 100 | < 100 | < 1000 |  |
| CN1CC(n2cnc3ccc(-c4ccc5oc(N)nc5c4)cc3c2=O)C1 | < 1000 | < 10000 | > 10000 | > 10000 |  |
| [2H]C1([2H])OC([2H])([2H])C([2H])([2H])N(C(=O)c2cnc3ccc(-c4ccc5oc(N)nc5c4)cn23)C1([2H])[2H] | < 1000 | > 10000 | > 10000 | < 10000 |  |
| C[C@@H]1CN(C2CN(c3cnc4ccc(-c5ccc6oc(N)nc6c5)nc4n3)C2)CCN1C | < 100 | > 10000 |  |  | < 10000 |
| C[C@@H]1CN(c2cnc3ccc(-c4ccc5oc(N)nc5c4)nc3n2)CCN1 | < 100 | < 100 |  |  | < 1000 |
| CN(C)CC(=O)N1CCN(c2cnc3ccc(-c4ccc5oc(N)nc5c4)cc3n2)CC1 [drawing 407] |  |  | < 1000 | < 1000 |  |

Next, values leading:

| IC50 (PI3K α) [nM] | IC50 (PI3K β) [nM] | IC50 [1] [nM] | IC50 (PI3K γ; read-out: PI3K δ IC50) [nM] | IC50 (PI3K γ; read-out: PI3K γ IC50) [nM] | Structure (SMILES) |
| --- | --- | --- | --- | --- | --- |
| < 100 | < 10000 | < 10000 | < 100 |  | Nc1nc2cc(-c3ccc4ncc(C(=O)N5CCC5)n4c3)ccc2o1 |
| < 100 | < 10000 | < 10000 | < 1000 |  | CS(=O)(=O)CCN1CCN(C(=O)c2cnc3ccc(-c4ccc5oc(N)nc5c4)cn23)CC1 |
| < 100 | < 10000 | < 100 | < 100 |  | CS(=O)(=O)CCN1CCC(NC(=O)c2cnc3ccc(-c4ccc5oc(N)nc5c4)cn23)CC1 |
| < 100 | < 10000 | < 10000 | < 100 |  | Nc1nc2cc(-c3ccc4ncc(C(=O)N5CC(O)C5)n4c3)ccc2o1 |
| < 100 | < 10000 | > 10000 |  |  | CC1CN(C(=O)c2cnc3ccc(-c4ccc5oc(N)nc5c4)cn23)CCO1 (centres unmarked) |
| < 100 | < 10000 | < 10000 |  |  | Nc1nc2cc(-c3ccc4ncc(C(=O)N5CCC(O)C5)n4c3)ccc2o1 (centres unmarked) |
| < 100 | < 100 | < 1000 | < 100 |  | CN1CCC(NC(=O)c2cnc3ccc(-c4ccc5oc(N)nc5c4)nn23)CC1 |
| < 100 | < 1000 | > 10000 | > 10000 |  | Nc1nc2cc(-c3ccc4ncc(C(=O)N5CCC(N)CC5)n4c3)ccc2o1 |
| < 100 | > 10000 | > 10000 | > 10000 |  | Nc1nc2cc(-c3ccc4ncn(C5CCC5)c(=O)c4c3)ccc2o1 |
| < 100 | > 10000 | > 10000 | < 1000 |  | CC(C)n1cnc2ccc(-c3ccc4oc(N)nc4c3)cc2c1=O |
| < 100 | < 100 | < 1000 | < 100 |  | C[C@H](N)C(=O)N1CCN(c2cnc3ccc(-c4ccc5oc(N)nc5c4)cc3n2)CC1 |
| < 100 | < 1000 | < 1000 | < 10000 |  | C[C@@H](N)C(=O)N1CCN(c2cnc3ccc(-c4ccc5oc(N)nc5c4)cc3n2)CC1 |
| < 100 | < 1000 | < 10000 | < 100 |  | Nc1nc2cc(-c3ccc4ncc(N5CCC(O)C5)nc4c3)ccc2o1 (centres unmarked) |
| < 100 | < 100 | < 100 | < 100 |  | CC(=O)N1CCC(Nc2ncnc3ccc(-c4ccc5oc(N)nc5c4)nc23)CC1 |
| < 100 | < 1000 | < 1000 | < 1000 |  | CN1CCC(Nc2ncnc3ccc(-c4ccc5oc(N)nc5c4)nc23)CC1 |
| < 100 | < 1000 | < 1000 | > 10000 |  | CC(C)(N)C(=O)N1CCN(c2cnc3ccc(-c4ccc5oc(N)nc5c4)cc3n2)CC1 |
| < 100 | < 100 | < 10000 | < 1000 |  | CNC(=O)C1CN(c2cnc3ccc(-c4ccc5oc(N)nc5c4)cc3n2)C1 |
| < 100 | < 1000 | < 10000 | < 1000 |  | Nc1nc2cc(-c3ccc4ncc(N5CC(C(=O)NC6CC6)C5)nc4c3)ccc2o1 |
| < 100 | < 1000 | < 10000 | < 100 |  | Nc1nc2cc(-c3ccc4ncc(N5CC(O)C5)nc4c3)ccc2o1 |
